Source: patent EP3448864B1, “SILSE[…] TRANSPORT COMPOUNDS” (Technische Universität Darmstadt, priority 2016, dated 2017)

Assays:
Assay type in all cases: cell-based
HeLa-Zellen [1] = assay: Cell proliferation test (MTT) after short incubation; details: free drug in PBS pH 5,5, different concentrations, 1, 2 and 3 h incubation, 1x10^4 HeLa cells, MTT after 18 h
Description: Um die Toxizität von Doxorubicin auf HeLa-Zellen zu untersuchen, wurde ein Inkubationszeitabhängiger Test mit dem freien Wirkstoff durchgeführt. Dafür wurde Doxorubicin in PBS bei pH 5,5 gelöst und bei unterschiedlichen Konzentrationen für 1 Stunde, 2 Stunden und 3 Stunden mit 1x10^4 HeLa-Zellen inkubiert. Nach dem Inkubieren wurden die Zellen mit DMEM gewaschen und nach 18 Stunden ein Zellproliferationstest (MTT) durchgeführt.
Danach wurde die oben gezeigte erfindungsgemäße Verbindung mit Doxorubicin als Cargo-Molekülstruktur getestet. Die Verbindung wurde - genau wie die Kontrollen (freies Doxorubicin, unbehandelte Zellen) -je dreifach bei gleicher Konzentration für eine Stunde inkubiert. Um die Disulfidbrücke zu schützen wurden die Zellen mit hoch-glucosehaltigem DMEM ohne Methionin, Cysteine und Glutamine gewaschen. Nach der Inkubation wurden die Zellen mit DMEM gewaschen und nach 18 Stunden wurde ein MTT-Assay durchgeführt. […] Die Ergebnisse sind in FIG.6 zusammen gefasst.

HeLa-Zellen [2] = assay: Flow cytometry quantification of cellular uptake; details: for Aufnahme in Zellen: summary statement in the description, citing FIG.1A/1B, 2, 3, 4
Description: Um die Aufnahme der Verbindungen in eukaryotische Zellen zu quantifizieren, wurden umfangreiche Durchflusszytometrieuntersuchungen mit den Verbindungen 2 bis 7 (Verbindungen 2 und 5 sind Vergleichsbeispiele) durchgeführt. Ferner wurden auch die aus dem Stand der Technik bekannten zellpenetrierenden Peptide Tat 10, Penetratin 11, Heptaarginin 12 und Decaarginin 13 untersucht. Zu diesem Zweck wurden auch die Peptide mit TAMRA markiert.
Zunächst wurden HeLa-Zellen mit den zu untersuchenden Substanzen bei einer Konzentration von 20 µM in serumfreiem DMEM bei 37°C für 10 Minuten inkubiert. Danach wurden die Zellen dreimal mit PBS gewaschen und nach einem Trypsinverdau nochmals mit PBS gewaschen. Danach wurden die Untersuchungen durchgeführt. […] Die Ergebnisse sind in FIG.2 zusammen gefasst.

HeLa-Zellen [3] = assay: Study of the uptake mechanism (temperature, concentration, serum) by fluorescence
Protocol: Es wurden weitere Fluoreszenzuntersuchungen an Verbindung 4 durchgeführt. […] Daraus kann angenommen werden, dass der Mechanismus energieunabhängig verläuft.
Ferner wurden HeLa-Zellen mit der Verbindung 4 bei unterschiedlichen Konzentrationen inkubiert. Schon bei 80 nM wurde eine Aufnahme in die Zellen beobachtet. Bei 1 µM wurde der größte Effekt beobachtet.
Darüber hinaus wurde untersucht, ob Serum die Aufnahme in die Zellen behindern kann. Dafür wurde die Inkubationslösung mit 2% fetalem Kälberserum versetzt.

[4] = HeLa cells incubated at different concentrations

COc1cccc2c1C(=O)c1c(O)c3c(c(O)c1C2=O)C[C@@](O)(C(=O)CO)C[C@@H]3O[C@H]1C[C@H](N)[C@H](O)[C@H](C)O1 [Doxorubicin, reference compound]
Toxizität auf HeLa-Zellen (HeLa-Zellen [1]): mit längerer Inkubation nahm die Toxizität zu

TAMRA-hepta-4-guanidinobuttersäure-COSS-amid [Verbindung 7]
Aufnahme in Zellen (HeLa-Zellen [2]): besonders ausgeprägte Aufnahme in Zellen

TAMRA-hepta-4-trimethylammoniumbuttersäure-COSS-amid [Verbindung 6]
Aufnahme in Zellen (HeLa-Zellen [2]): besonders ausgeprägte Aufnahme in Zellen

TAMRA-heptaguanidin-COSS [Verbindung 4]
Konzentration, bei der der größte Effekt beobachtet wurde (HeLa-Zellen [3]; [4]): 1 µM | Konzentration, bei der schon eine Aufnahme in die Zellen beobachtet wurde (HeLa-Zellen [3]; [4]): 80 nM | Aufnahme bei den unterschiedlichen Temperaturen (HeLa-Zellen [3]; incubation at 37°C versus 4°C): kaum unterschiedlich | Einfluss von Serum auf die Aufnahme in die Zellen (HeLa-Zellen [3]; incubation solution with 2% fetal calf serum versus serum-free tests): kein Unterschied | Aufnahme stärker ausgeprägt als die des Tat-Peptids (HeLa-Zellen [2]; 20 µM, serum-free DMEM, 37°C, 10 min, fold versus TAMRA-labelled Tat peptide): 155 mal | Aufnahme (HeLa-Zellen [2]; 20 µM, serum-free DMEM, 37°C, 10 min, ranking among compounds 2 to 7 and TAMRA-labelled peptides 10 to 13, FIG.2): beste Aufnahme | Aufnahme in Zellen (HeLa-Zellen [2]): besonders ausgeprägte Aufnahme in Zellen

TAMRA-heptatrimethylammonium-COSS [Verbindung 3]
Aufnahme in Zellen (HeLa-Zellen [2]): besonders ausgeprägte Aufnahme in Zellen
